The source of these data is patent US9328138B2 (priority 2011, dated 2016).

In general, Ki refers to a dissociation constant, usually derived from enzyme kinetics or from competition with a known ligand. A high value points to lower affinity.

Assay [1] has as its target T1, HCV genotype 1b (BK) NS3 modified enzyme with a R155K mutation (Hepatitis C virus genotype 1b, UniProt P26663, R1181K).
T1 construct: HCV genotype 1b (BK) NS3 modified enzyme
The assay can be described thus: HCV NS3 protease time-resolved fluorescence (TRF) assay, genotype 1b R155K. The settings on record: Ki 1b R155K. The format is biochemical. The procedure, abridged:
(§1)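 IC50 values derive from 4-parameter fitting of TRF signal after a 6 h room-temperature cleavage of 25 nM peptide substrate by NS3/NS4A that had been pre-incubated 10 min with compound.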

Assay [2] addresses HCV NS3 protease genotype 3a (3A-1) (Hepatitis C virus genotype 3a, UniProt Q81258). The assay can be described thus: HCV NS3 protease time-resolved fluorescence (TRF) assay, genotype 3a. It counts as biochemical. The settings on record: Ki 3a. The essentials:
as §1

[3] abbreviates: genotype 1b (BK) NS3 R155K, single value.
Where [4] appears, read: first of two values printed in the cell (not explained).
[5] abbreviates: second of two values printed in the cell (not explained).

On to `C=C[C@@H]1C[C@]1(NC(=O)[C@@H]1C[C@@H]2CN1C(=O)[C@H](C(C)(C)C)NC(=O)O[C@@H]1CCC[C@H]1CC/C=C/Cc1c(nc3ccccc3c1OCCCOC)O2)C(=O)NS(=O)(=O)C1(C)CC1` [Example 90, (3aR,7S,10S,12R,21E,24aS)-7-tert-butyl-N-[(1R,2S)-2-ethenyl-1-{[(1-methylcyclopropyl)sulfonyl]carbamoyl}cyclopropyl]-19-(3-methoxypropoxy)-5,8-dioxo-1,2,3,3a,5,6,7,8,11,12,20,23,24,24a-tetradecahydro-10H-9,12-methanocyclopenta[18,19][1,10,3,6] dioxadiazacyclononadecino [11,12-b]quinoline-10-carboxamide], for which the inhibition constant (Ki) is 0.15 nM in assay [1] (setting [3]) and 1.6 nM in assay [2].

For `C=C[C@@H]1C[C@]1(NC(=O)[C@@H]1C[C@@H]2CN1C(=O)[C@H](C(C)(C)C)NC(=O)O[C@@H]1C[C@H]1CCCCCc1c(nc3ccccc3c1OCCN1CC3(CCC3)C1)O2)C(=O)NS(=O)(=O)C1(C)CC1` [Example 136, (1aR,5S,8S,10R,22aR)-17-[2-(2-azaspiro[3.3]hept-2-yl)ethoxy]-5-tert-butyl-N-[(1R,2S)-2-ethenyl-1-{[(1-methylcyclopropyl)sulfonyl]carbamoyl}cyclopropyl]-3,6-dioxo-1,1a,3,4,5,6,9,10,18,19,20,21,22,22a-tetradecahydro-8H-7,10-methanocyclopropa[18,19][1,10,3,6] dioxadiazacyclononadecino [11,12-b]quinoline-8-carboxamide], the Ki is 0.58 nM in assay [1] (setting [3]) and 5.1 nM in assay [2].

In the case of `C=C[C@@H]1C[C@]1(NC(=O)[C@@H]1C[C@@H]2CN1C(=O)[C@H](C(C)(C)C)NC(=O)O[C@@H]1C[C@H]1CCCCCc1c(nc3ccccc3c1OCCCN1CCNC(C(F)(F)F)C1)O2)C(=O)NS(=O)(=O)C1(C)CC1` (stereo partly drawn) [Example 205, (1aR,5S,8S,10R,22aR)-5-tert-butyl-N-[(1R,2S)-2-ethenyl-1-{[(1-methylcyclopropyl)sulfonyl]carbamoyl}cylcopropyl]-3,6-dioxo-17-{3-[3-(trifluoromethyl)piperazin-1-yl]propoxy}-1,1a,3,4,5,6,9,10,18, 19,20,21,22,22a-tetradecahydro-8H-7,10-methanocyclopropa[18,19][1,10,3,6] dioxadiazacyclononadecino[11,12-b] quinoline-8-carboxamide], the figures for the Ki in assay [1] (setting [3]) and in assay [2] were 0.19 nM and 1.9 nM, respectively.

Turning to `C=C[C@@H]1C[C@]1(NC(=O)[C@@H]1C[C@@H]2CN1C(=O)[C@H](C(C)(C)C)NC(=O)O[C@@H]1C[C@H]1CCCCCc1c(nc3cc(C(C)C)ccc3c1OCCCN1CCS(=O)(=O)CC1)O2)C(=O)NS(=O)(=O)C1(C)CC1` [Example 162, (1aR,5S,8S,10R,22aR)-5-tert-butyl-17-[3-(1,1-dioxidothiomorpholin-4-yl)propoxy]-N-[(1R,2S)-2-ethenyl-1-{[(1-methylcyclopropyl)sulfonyl]carbamoyl}cyclopropyl]-3,6-dioxo-14-(propan-2-yl)-1,1a,3,4,5,6,9,10,18, 19,20,21,22,22a-tetradecahydro-8H-7,10-methanocyclopropa[18,19] [1,10,3,6]dioxadiazacyclononadecino [11,12-b]quinoline-8-carboxamide], the Ki in assay [1] (setting [3]) was 0.18 nM; in assay [2], 1.7 nM.

Regarding `C=C[C@@H]1C[C@]1(NC(=O)[C@@H]1C[C@@H]2CN1C(=O)[C@H](C(C)(C)C)NC(=O)O[C@@H]1C[C@H]1CCCCCc1c(nc3ccccc3c1OC1C3COCC1CN(CC)C3)O2)C(=O)NS(=O)(=O)C1(C)CC1` (stereo partly drawn) [Example 260, (1aR,5S,8S,10R,22aR)-5-tert-butyl-N-[(1R,2S)-2-ethenyl-1-{[(1-methylcyclopropyl)sulfonyl]carbamoyl}cyclopropyl]-17-[(7-ethyl-3-oxa-7-azabicyclo[3.3.1]non-9-yl)oxy]-3,6-dioxo-1,1a,3,4,5,6,9,10,18,19,20,21,22,22a-tetradecahydro-8H-7,10-methanocyclopropa[18,19][1,10,3,6]dioxadiazacyclononadecino[11,12-b]quinoline-8-carboxamide], the Ki is 0.019 nM in assay [1] (setting [4]), 0.093 nM in assay [1] (setting [5]) and 2.4 nM in assay [2].

Take `C=C[C@@H]1C[C@]1(NC(=O)[C@@H]1C[C@@H]2CN1C(=O)[C@H](C(C)(C)C)NC(=O)O[C@@H]1CCC[C@H]1CCCCCc1c(nc3ccccc3c1O)O2)C(=O)NS(=O)(=O)C1(C(=C)C)CC1` [Example 37, (3aR,7S,10S,12R,24aR)-7-tert-butyl-N-[(1R, 2S)-2-ethenyl-1-({[1-(prop-1-en-2-yl)cyclopropyl]sulfonyl}carbamoyl)cyclopropyl]-19-hydroxy-5,8-dioxo-1,2,3,3a,5,6,7,8,11,12,20, 21,22,23,24,24a-hexadecahydro-10H-9,12-methanocyclopenta[18,19][1,10,3,6] dioxadiazacyclononadecino[11,12-b]quinoline-10-carboxamide]: the Ki worked out at 0.16 nM in assay [1] (setting [3]) and 6 nM in assay [2].

In the case of `C=C[C@@H]1C[C@]1(NC(=O)[C@@H]1C[C@@H]2CN1C(=O)[C@H](C(C)(C)C)NC(=O)O[C@@H]1C[C@H]1CCCCCc1c(nc3ccccc3c1OCCCN1CC3(COC3)C1)O2)C(=O)NS(=O)(=O)C1(C)CC1` [Example 194], the figures for the Ki in assay [1] (setting [3]) and in assay [2] were 0.032 nM and 0.38 nM, respectively.

In the case of `C=C[C@@H]1C[C@]1(NC(=O)[C@@H]1C[C@@H]2CN1C(=O)[C@H](C(C)(C)C)NC(=O)O[C@@H]1CCC[C@H]1CC/C=C/Cc1c(nc3ccccc3c1OCCn1cccc1)O2)C(=O)NS(=O)(=O)C1CC1` [Example 52, (3aR,7S,10S,12R,21E,24aS)-7-tert-butyl-N-{(1R,2S)-1-[(cyclopropylsulfonyl)carbamoyl]-2-ethenylcyclopropyl}-5,8-dioxo-19-[2-(1H-pyrrol-1-yl)ethoxy]-1,2,3,3a,5,6,7,8,11,12,20, 23,24,24a-tetradeca hydro-10H-9,12-methano cyclopenta[18,19][1,10,3,6]dioxadiazacyclo nonadecino[11,12-b]quinoline-10-carboxamide], the values for the inhibition constant (Ki) in assay [1] (setting [3]) and in assay [2] were 1.1 nM and 10 nM, respectively.

As for `C=C[C@@H]1C[C@]1(NC(=O)[C@@H]1C[C@@H]2CN1C(=O)[C@H](C(C)(C)C)NC(=O)O[C@@H]1C[C@H]1CCCCCc1c(nc3ccccc3c1OC1CCN(CC(F)(F)F)CC1)O2)C(=O)NS(=O)(=O)C1(C)CC1` [Example 234, (1aR,5S,8S,10R,22aR)-5-tert-butyl-N-[(1R,2S)-2-ethenyl-1-{[(1-methylcyclopropyl)sulfonyl]carbamoyl}cyclopropyl]-3,6-dioxo-17-{[1-(2,2,2-trifluoroethyl)piperidin-4-yl]oxy}-1,1a,3,4,5,6,9,10,18,19,20,21,22,22a-tetradecahydro-8H-7,10-methanocyclopropa[18,19][1,10,3,6]dioxadiazacyclononadecino[11,12-b]quinoline-8-carboxamide], the values for the Ki in assay [1] (setting [4]), in assay [1] (setting [5]) and in assay [2] were 0.08 nM, 1.38 nM and 29.1 nM, respectively.

For the compound `C=C[C@@H]1C[C@]1(NC(=O)[C@@H]1C[C@@H]2CN1C(=O)[C@H](C(C)(C)C)NC(=O)O[C@@H]1C[C@H]1CCCCCc1c(nc3ccccc3c1OC1CC3CCC(C1)N3CC(F)(F)F)O2)C(=O)NS(=O)(=O)C1(C)CC1` (stereo partly drawn) [Example 275, potassium {[(1R,2S)-1-({[(1aR,5S,8S,10R,22aR)-5-tert-butyl-3,6-dioxo-17-{[8-(2,2,2-trifluoroethyl)-8-azabicyclo[3.2.1]oct-3-yl]oxy}-1,1a,3,4,5,6,9,10,18,19,20,21,22,22a-tetradecahydro-8H-7,10-methanocyclopropa[18,19][1,10,3,6]dioxadiazacyclononadecino[11,12-b]quinolin-8-yl]carbonyl}amino)-2-ethenylcyclopropyl]carbonyl}[(1-methylcyclopropyl)sulfonyl]azanide], the inhibitory constant (Ki) in assay [1] (setting [4]) amounted to 0.11 nM; in assay [1] (setting [5]), 1.15 nM; in assay [2] it was 16 nM.

Take `C=C[C@@H]1C[C@]1(NC(=O)[C@@H]1C[C@@H]2CN1C(=O)[C@H](C(C)(C)C)NC(=O)O[C@@H]1CCC[C@H]1CC/C=C/Cc1c(nc3ccccc3c1OCCCN1CCCCC1)O2)C(=O)NS(=O)(=O)C1(C)CC1` [Example 59, (3aR,7S,10S,12R,21E,24aS)-7-tert-butyl-N-[(1R,2S)-2-ethenyl-1-{[(1-methylcyclopropyl)sulfonyl]carbamoyl}cyclopropyl]-5,8-dioxo-19-[3-(piperidin-1-yl)propoxy]-1,2,3,3a,5,6,7,8,11,12,20,23,24,24a-tetra decahydro-10H-9,12-methanocyclopenta[18,19][1,10,3,6] dioxadiazacyclononadecino[11,12-b] quinoline-10-carboxamide]: the figures for the Ki in assay [1] (setting [3]) and in assay [2] were 0.11 nM and 0.45 nM, respectively.

As to `C=C[C@@H]1C[C@]1(NC(=O)[C@@H]1C[C@@H]2CN1C(=O)[C@H](C1CCCC1)NC(=O)O[C@@H]1CCC[C@H]1CC/C=C/Cc1c(nc3ccccc3c1OC(=O)NC(C)C)O2)C(=O)NS(=O)(=O)C1CC1` [Example 93, (3aR,7S,10S,12R,21E,24aS)-7-cyclopentyl-10-({(1R,2S)-1-[(cyclopropylsulfonyl)carbamoyl]-2-ethenylcyclopropyl}carbamoyl)-5,8-dioxo-1,2,3,3a,5,6,7,8,11,12,20,23,24,24a-tetradecahydro-10H-9,12-methanocyclopenta[18,19][1,10,3,6]dioxadiazacyclononadecino[11,12-b]quinolin-19-yl propan-2-ylcarbamate], the Ki turned out to be 0.26 nM in assay [1] (setting [3]) and 2.8 nM in assay [2].
